Source: the NIST ThermoML archive (doi:10.1016/j.jct.2014.05.019)
± gives the expanded uncertainty stated by the source.

Assay: refractive index (Na D-line) (dimensionless); xn = mol fraction of the nth substance listed
Conditions: 100 kPa, Liquid, Standard Abbe refractometry

NC(CO)C(=O)[O-].[Na+] (stereo not drawn) [sodium DL-serine] + O
refractive index
Conditions	303.15 K	308.15 K	313.15 K	318.15 K	323.15 K	328.15 K	333.15 K	338.15 K	343.15 K
x1 = 0.009	1.34216 ± 0.00031	1.34144 ± 0.00031	1.34066 ± 0.00031	1.33982 ± 0.00031	1.33894 ± 0.00031	1.33802 ± 0.00031	1.33706 ± 0.00031	1.33608 ± 0.00031	1.33505 ± 0.00031
x1 = 0.018	1.35202 ± 0.00031	1.35122 ± 0.00031	1.35038 ± 0.00031	1.3495 ± 0.00031	1.34861 ± 0.00031	1.34767 ± 0.00031	1.34667 ± 0.00031	1.34565 ± 0.00031	1.34458 ± 0.00031
x1 = 0.028	1.36168 ± 0.00031	1.36085 ± 0.00031	1.36 ± 0.00031	1.35908 ± 0.00031	1.35806 ± 0.00031	1.35706 ± 0.00031	1.35612 ± 0.00031	1.35511 ± 0.00031	1.35407 ± 0.00031
x1 = 0.037	1.37103 ± 0.00031	1.37015 ± 0.00031	1.36925 ± 0.00031	1.3683 ± 0.00031	1.36729 ± 0.00031	1.36632 ± 0.00031	1.36532 ± 0.00031	1.36426 ± 0.00031	1.36322 ± 0.00031
x1 = 0.048	1.38012 ± 0.00031	1.37921 ± 0.00031	1.37827 ± 0.00031	1.37725 ± 0.00031	1.37623 ± 0.00031	1.37526 ± 0.00031	1.37424 ± 0.00031	1.37311 ± 0.00031	1.37204 ± 0.00031
x1 = 0.059	1.38919 ± 0.00032	1.38826 ± 0.00032	1.38724 ± 0.00032	1.3862 ± 0.00032	1.38512 ± 0.00032	1.38406 ± 0.00032	1.38298 ± 0.00032	1.38194 ± 0.00032	1.38083 ± 0.00032
